Measurements published in ChEMBL document CHEMBL3885881, “DrugMatrix”.
Values joined by “and” are separate entries in the source; they are usually repeats but may differ in a detail not shown here. Equal entries are not always repeated.

Organism: Rattus norvegicus
Experiment: DrugMatrix - Regimen: Daily Repeat
Assay type: toxicity, organism-based, Sprague-Dawley
Design: regimen Daily Repeat, gender Male, age 6-8 weeks
Conditions: in vivo, po, route oral GAVAGE, vehicle 100 % WATER; for ABSOLUTE BASOPHIL / ABSOLUTE LYMPHOCYTE / ABSOLUTE MONOCYTE / ABSOLUTE SEGMENTED NEUTROPHIL / BASOPHIL / EOSINOPHIL / ERYTHROCYTE COUNT / HEMATOCRIT / HEMOGLOBIN / LEUKOCYTE COUNT / LYMPHOCYTE / MEAN CORPUSCULAR HEMOGLOBIN / MEAN CORPUSCULAR HEMOGLOBIN CONCENTRATION / MEAN CORPUSCULAR VOLUME / MONOCYTE / NEUTROPHIL / NUCLEATED RED BLOOD CELLS / PLATELET COUNT / ABSOLUTE EOSINOPHIL: tissue Blood; for ALANINE AMINOTRANSFERASE / ALBUMIN / ALKALINE PHOSPHATASE / ASPARTATE AMINOTRANSFERASE / BLOOD UREA NITROGEN / CARBON DIOXIDE / CHLORIDE / CHOLESTEROL / CREATINE PHOSPHOKINASE / CREATININE / GLUCOSE / LACTATE DEHYDROGENASE / LIPASE / PHOSPHORUS / POTASSIUM / SODIUM / TOTAL BILIRUBIN / TOTAL PROTEIN / URIC ACID: tissue Plasma
[1] = 0 mg/kg, 72 h, dose level Control, time 3 day
[2] = 0 mg/kg, 120 h, dose level Control, time 5 day
[3] = 4.5 mg/kg, 72 h, dose level Low, time 3 day

Q: Which results are given for `COc1ccc2c(c1)c(CC(=O)O)c(C)n2C(=O)c1ccc(Cl)cc1` [INDOMETHACIN]?
A: ABSOLUTE BASOPHIL [1]: 0 CELLS/uL; ABSOLUTE LYMPHOCYTE [1]: 6747 CELLS/uL and 14108.83 CELLS/uL; ABSOLUTE MONOCYTE [1]: 73 CELLS/uL and 81 CELLS/uL; ABSOLUTE SEGMENTED NEUTROPHIL [1]: 480 CELLS/uL and 818.67 CELLS/uL; BASOPHIL [1]: 0%; EOSINOPHIL [1]: 0% and 0.67%; ERYTHROCYTE COUNT [1]: 5.14 x10E6/uL and 5.56 x10E6/uL; HEMATOCRIT [1]: 32.27% and 34.5%; HEMOGLOBIN [1]: 12.53 G/DL and 13.45 G/DL; LEUKOCYTE COUNT [1]: 7.3 x10E3/uL and 15.1 x10E3/uL; LYMPHOCYTE [1]: 93%; MEAN CORPUSCULAR HEMOGLOBIN [1]: 24.37 pg and 24.2 pg; MEAN CORPUSCULAR HEMOGLOBIN CONCENTRATION [1]: 38.87 G/DL and 38.98 G/DL; MEAN CORPUSCULAR VOLUME [1]: 62.7 fL and 62.07 fL; MONOCYTE [1]: 1% and 0.5%; NEUTROPHIL [1]: 6% and 5.83%; NUCLEATED RED BLOOD CELLS [1]: 0 /100WBC; PLATELET COUNT [1]: 1023 x10E3/uL and 1193.33 x10E3/uL; ALANINE AMINOTRANSFERASE [1]: 49.33 u/L and 60.33 u/L; ALBUMIN [1]: 3.73 G/DL and 4 G/DL; ALKALINE PHOSPHATASE [1]: 331 u/L and 334.83 u/L; ASPARTATE AMINOTRANSFERASE [1]: 79.67 u/L and 74.5 u/L; BLOOD UREA NITROGEN [1]: 15.33 mg/dL and 13.5 mg/dL; CARBON DIOXIDE [1]: 30.33 mmol/L; CHLORIDE [1]: 100.67 MEQ/L and 98.33 MEQ/L; CHOLESTEROL [1]: 77 mg/dL and 71.17 mg/dL; CREATINE PHOSPHOKINASE [1]: 319.67 u/L and 212 u/L; CREATININE [1]: 0.11 mg/dL and 0.21 mg/dL; GLUCOSE [1]: 169 mg/dL and 173.17 mg/dL; LACTATE DEHYDROGENASE [1]: 113.33 u/L and 101.5 u/L; LIPASE [1]: 10.33 u/L and 24.17 u/L; PHOSPHORUS [1]: 11.97 mg/dL and 10.87 mg/dL; POTASSIUM [1]: 5.06 MEQ/L and 6.06 MEQ/L; SODIUM [1]: 144.13 MEQ/L and 140.58 MEQ/L; TOTAL BILIRUBIN [1]: 0.2 mg/dL and 0.17 mg/dL; TOTAL PROTEIN [1]: 5.8 G/DL and 5.9 G/DL; URIC ACID [1]: 0.57 mg/dL and 1.23 mg/dL; ABSOLUTE BASOPHIL [2]: 0 CELLS/uL; ABSOLUTE EOSINOPHIL [2]: 31.33 CELLS/uL and 34.5 CELLS/uL; ABSOLUTE LYMPHOCYTE [2]: 7806.33 CELLS/uL and 8181 CELLS/uL; ABSOLUTE MONOCYTE [2]: 202 CELLS/uL and 82.67 CELLS/uL; ABSOLUTE SEGMENTED NEUTROPHIL [2]: 927 CELLS/uL and 435.17 CELLS/uL; BASOPHIL [2]: 0%; EOSINOPHIL [2]: 0.33% and 0.5%; ERYTHROCYTE COUNT [2]: 4.96 x10E6/uL and 5.31 x10E6/uL; HEMATOCRIT [2]: 32.37% and 33.83%; HEMOGLOBIN [2]: 12.53 G/DL and 13.37 G/DL; LEUKOCYTE COUNT [2]: 8.97 x10E3/uL and 8.73 x10E3/uL; LYMPHOCYTE [2]: 87.33% and 93.5%; MEAN CORPUSCULAR HEMOGLOBIN [2]: 25.27 pg and 25.2 pg; MEAN CORPUSCULAR HEMOGLOBIN CONCENTRATION [2]: 38.7 G/DL and 39.53 G/DL; MEAN CORPUSCULAR VOLUME [2]: 65.23 fL and 63.73 fL; MONOCYTE [2]: 2.33% and 1%; NEUTROPHIL [2]: 10% and 5%; NUCLEATED RED BLOOD CELLS [2]: 0 /100WBC; PLATELET COUNT [2]: 1189.33 x10E3/uL and 1057.33 x10E3/uL; ALANINE AMINOTRANSFERASE [2]: 53.33 u/L and 54.33 u/L; ALBUMIN [2]: 3.97 G/DL and 4.07 G/DL; ALKALINE PHOSPHATASE [2]: 326 u/L and 308.67 u/L; ASPARTATE AMINOTRANSFERASE [2]: 59.67 u/L and 83.17 u/L; BLOOD UREA NITROGEN [2]: 15 mg/dL and 14 mg/dL; CARBON DIOXIDE [2]: 33.67 mmol/L and 34 mmol/L; CHLORIDE [2]: 105 MEQ/L and 98 MEQ/L; CHOLESTEROL [2]: 73 mg/dL and 71.33 mg/dL; CREATINE PHOSPHOKINASE [2]: 208.33 u/L and 266.5 u/L; CREATININE [2]: 0.1 mg/dL and 0.27 mg/dL; GLUCOSE [2]: 153.33 mg/dL and 133 mg/dL; LACTATE DEHYDROGENASE [2]: 62 u/L and 127 u/L; LIPASE [2]: 10.33 u/L and 11.67 u/L; PHOSPHORUS [2]: 10.93 mg/dL and 10.6 mg/dL; POTASSIUM [2]: 5.5 MEQ/L and 6.17 MEQ/L; SODIUM [2]: 147.27 MEQ/L and 142.68 MEQ/L; TOTAL BILIRUBIN [2]: 0.17 mg/dL and 0.15 mg/dL; TOTAL PROTEIN [2]: 5.87 G/DL and 6.03 G/DL; URIC ACID [2]: 0.4 mg/dL and 0.75 mg/dL; ABSOLUTE BASOPHIL [3]: 0 CELLS/uL; ABSOLUTE EOSINOPHIL [3]: 0 CELLS/uL; ABSOLUTE LYMPHOCYTE [3]: 7564.67 CELLS/uL; ABSOLUTE MONOCYTE [3]: 197.67 CELLS/uL; ABSOLUTE SEGMENTED NEUTROPHIL [3]: 937.67 CELLS/uL; BASOPHIL [3]: 0%; EOSINOPHIL [3]: 0%; ERYTHROCYTE COUNT [3]: 5.16 x10E6/uL
